Where two headings read alike, the source gives them in different places. Values belong to the molecule of their own block, whether it stands above or below them.
Key:
ALiP [1] = test: steady-state kinetics, spectrophotometric ([…] nm); type: biochemical, ancestral sequence (Polyporales, reconstructed); settings: 0.2 mM H2O2, 0.1 M tartrate, pH 3, 25 °C; exposed Trp site
AVP [2] = test: steady-state kinetics, spectrophotometric ([…] nm); type: biochemical, ancestral sequence (Polyporales, reconstructed); settings: 0.4 mM H2O2, 0.1 M tartrate, pH 3, 25 °C; exposed Trp site
ALiP [3] = test: steady-state kinetics, spectrophotometric ([…] nm); type: biochemical, ancestral sequence (Polyporales, reconstructed); settings: 0.2 mM H2O2, 0.1 M tartrate, pH 3.0, 25 °C; exposed Trp site
AVP [4] = test: steady-state kinetics, spectrophotometric ([…] nm); type: biochemical, ancestral sequence (Polyporales, reconstructed); settings: 0.4 mM H2O2, 0.1 M tartrate, pH 3.5, 25 °C; exposed Trp site
CaPo = test: steady-state kinetics, spectrophotometric ([…] nm); type: biochemical, ancestral sequence (Polyporales, reconstructed); settings: 0.4 mM H2O2, 0.1 M tartrate, pH 2, 25 °C; low efficiency site (heme channel)
AVP [5] = test: steady-state kinetics, spectrophotometric ([…] nm); type: biochemical, ancestral sequence (Polyporales, reconstructed); settings: 0.4 mM H2O2, 0.1 M tartrate, pH 3.0, 25 °C; biphasic kinetics, high efficiency site (exposed Trp)
CaCD [6] = test: steady-state kinetics, spectrophotometric ([…] nm); type: biochemical, ancestral sequence (Polyporales, reconstructed); settings: 0.4 mM H2O2, 0.1 M tartrate, pH 3.0, 25 °C; low efficiency site (heme channel)
ALiP [7] = test: steady-state kinetics, spectrophotometric ([…] nm); type: biochemical, ancestral sequence (Polyporales, reconstructed); settings: 0.2 mM H2O2, 0.1 M tartrate, pH 3.0, 25 °C; high efficiency site (exposed Trp)
CaCD [8] = settings: read-out: CaCD; 0.4 mM H2O2, 0.1 M tartrate, pH 3.5, 25 °C; low efficiency site (heme channel)
CaPo-tris = settings: saturating H2O2, 0.1 M tartrate, 25 °C; low efficiency site (heme channel)
CaPo-bis = settings: saturating H2O2, 0.1 M tartrate, 25 °C; low efficiency site (heme channel)
ALiP [9] = settings: read-out: ALiP; 0.2 mM H2O2, 0.1 M tartrate, pH 3.5, 25 °C; high efficiency site (exposed Trp)
AVP [10] = test: steady-state kinetics, spectrophotometric ([…] nm); type: biochemical, ancestral sequence (Polyporales, reconstructed); settings: 0.4 mM H2O2, 0.1 M tartrate, pH 3.5, 25 °C; biphasic kinetics, high efficiency site (exposed Trp)
purified protein [11] = substrate: COc1cccc(OC)c1O; test: purified protein; type: biochemical, Phanerodontia chrysosporium; settings: 0.1 mM H2O2, 0.1 M tartrate, pH 3.0, 25 °C, high efficiency site (exposed Trp)
purified protein [12] = substrate: CCn1c(=NN=c2sc3cc(S(=O)(=O)O)ccc3n2CC)sc2cc(S(=O)(=O)O)ccc21; test: purified protein; type: biochemical, Phanerodontia chrysosporium; settings: 0.1 mM H2O2, 0.1 M tartrate, pH 3.5, 25 °C, high efficiency site (exposed Trp)
purified protein [13] = substrate: COc1ccc(CO)cc1OC; test: purified protein; type: biochemical, Phanerodontia chrysosporium; settings: 0.1 mM H2O2, 0.1 M tartrate, pH 3.0, 25 °C, exposed Trp site

- Km (ALiP [1]): 12.6 ± 3.6 µM
- Km (AVP [2]): 4.8 ± 0.8 µM
Molecule: Nc1c(N=Nc2ccc(S(=O)(=O)CCOS(=O)(=O)O)cc2)c(S(=O)(=O)O)cc2cc(S(=O)(=O)O)c(N=Nc3ccc(S(=O)(=O)CCOS(=O)(=O)O)cc3)c(O)c12 [RB5]

- Km (ALiP [3]): 773 ± 155 µM
- Km (AVP [4]): 299 ± 104 µM
Molecule: COc1ccc(CO)cc1OC [VA]

- Km (CaPo): 32.9 mM
- Km (AVP [5]): 5.3 ± 1.1 µM
- Km (CaCD [6]): 66.8 mM
- Km (ALiP [7]): 34 ± 5.4 µM
Molecule: COc1cccc(OC)c1O [DMP]

Further lines, the molecule ahead of its results:

Molecule: CCn1c(=NN=c2sc3cc(S(=O)(=O)O)ccc3n2CC)sc2cc(S(=O)(=O)O)ccc21 [ABTS]
- Km (CaCD [8]): 1.28 ± 0.35 mM
- Km (CaPo-tris): 807 ± 104 µM
- Km (CaPo-bis): 1.39 ± 0.345 mM
- Km (ALiP [9]): 13.7 ± 3.5 µM
- Km (AVP [10]): 5.4 ± 0.7 µM

B1: LiPH8 (Phanerodontia chrysosporium) (protein)
chain: ATCSNGKTVGDASCCAWFDVLDDIQQNLFHGGQCGAEAHESIRLVFHDSIAISPAMEAQGKFGGGGADGSIMIFDDIETAFHPNIGLDEIVKLQKPFVQKHGVTPGDFIAFAGRVALSNCPGAPQMNFFTGRAPATQPAPDGLVPEPFHTVDQIINRVNDAGEFDELELVWMLSAHSVAAVNDVDPTVQGLPFDSTPGIFDSQFFVETQLRGTAFPGSGGNQGEVESPLPGEIRIQSDHTIARDSRTACEWQSFVNNQSKLVDDFQFIFLALTQLGQDPNAMTDCSDVIPQSKPIPGNLPFSFFPAGKTIKDVEQACAETPFPTLTTLPGPETSVQRIPPPPGA
- Km (purified protein [11]): 4.0 ± 0.07 µM
- Km (purified protein [12]): 21.3 ± 2.3 µM
- kcat (purified protein [12]): 6.5 ± 0.2 s⁻¹
- kcat/Km (purified protein [12]): 300 ± 25 s⁻¹ mM⁻¹
- Km (purified protein [13]): 79.3 ± 18 µM
- kcat (purified protein [13]): 16.2 ± 0.8 s⁻¹
- kcat/Km (purified protein [13]): 205 ± 4 s⁻¹ mM⁻¹
